Tests used:
[1] = target: T1, NHE1-mediated Na+/H+-exchange in MCF-7 human breast cancer cells (Homo sapiens, UniProt P19634); conditions: Lauritzen et al., 2010; cited from earlier work
T1 construct: net acid extrusion from MCF-7 cells occurs through a combination of NBCn1-mediated Na^+,HCO3^−-cotransport and NHE1-mediated Na^+/H^+-exchange; endogenous in cells; host or cells: MCF-7 human breast cancer cells (Lauritzen et al., 2010)

[2] = tested on: Na+,HCO3−-cotransport in primary aortic explants; experiment: Global pHi recovery and steady-state pHi in primary aortic explants (BCECF); assay type: cell-based, mouse
Protocol: Primary explants were produced from thoracic aortas and common carotid arteries of NBCn1 KO and wild-type (WT) mice. To best maintain the cell morphology and phenotype of native VSMCs, cultured cells were never passaged but investigated directly in primary explants.
(§1) Using wide-field fluorescence microscopy, global pHi was recorded in arteries and primary explants loaded with the pH-sensitive fluorophore BCECF. Recordings of pHi in subcellular domains were performed by confocal fluorescence microscopy of cells loaded with the pH-sensitive fluorophore carboxy SNARF-1. Intracellular buffering capacities were calculated from changes in pHi upon washout of NH4Cl. No difference in total intracellular buffering capacity (β) was seen between primary explants from NBCn1 KO and WT mice (βWT=15±2 mM, βKO=17±2 mM, n=8; P=0.45, unpaired two-tailed Student's t-test) evaluated at pHi 6.65-6.80.
The PSS was composed of (in mM) 134 Na^+, 4 K^+, 1.6 Ca^2+, 1.2 Mg^2+, 111 Cl^−, 24 HCO3^−, 1.2 SO4^2−, 1.18 H2PO4^−, 10 HEPES, 5.5 glucose, 0.03 EDTA. In Na^+-free solutions, Na^+ was substituted with an equimolar amount of N-methyl-D-glucammonium (NMDG^+), except for NaHCO3, which was replaced with choline-HCO3. In HCO3^−-free solutions, HCO3^− was replaced with an equimolar amount of Cl^−. […]

[3] = tested on: VSMC migration in primary aortic explants; experiment: Scratch-wound healing in primary aortic explants; assay type: cell-based, mouse
Protocol: (§2) Rates of wound healing in primary explants were calculated from time-lapse images captured at 5-minute intervals after scratch infliction. Experiments were performed in Minimum Essential Medium with 10% fetal calf serum or—to avoid binding of the non-selective Na^+,HCO3^−-cotransport inhibitor S0859 to medium or serum components—in physiological saline solutions (PSS). Cell size was estimated based on cell density in confluent areas. Total filopodia length was determined relative to the length of the migrating front (i.e., twice the scratch length). Cell proliferation was evaluated (a) by counting the relative number of cells dividing during six hours time-lapse imaging and (b) as the proportion of cells positive for the thymidine analogue bromodeoxyuridine (BrdU) after six hours incubation.
(§3) The PSS was composed of (in mM) 134 Na^+, 4 K^+, 1.6 Ca^2+, 1.2 Mg^2+, 111 Cl^−, 24 HCO3^−, 1.2 SO4^2−, 1.18 H2PO4^−, 10 HEPES, 5.5 glucose, 0.03 EDTA. In Na^+-free solutions, Na^+ was substituted with an equimolar amount of N-methyl-D-glucammonium (NMDG^+), except for NaHCO3, which was replaced with choline-HCO3. In HCO3^−-free solutions, HCO3^− was replaced with an equimolar amount of Cl^−. HCO3^−-containing solutions were aerated with a gas mixture of 5% CO2/balance air, whereas HCO3^−-free solutions were gassed with air (i.e., 21% O2/balance N2). All solutions were titrated to pH 7.4 at 37° C.

[4] = tested on: VSMCs of primary aortic explants; experiment: VSMC proliferation by time-lapse counting of mitoses; assay type: cell-based, mouse; conditions: 5 μM, PSS, six hours time-lapse
Protocol: as §2

[5] = tested on: primary aortic explants; experiment: Cell integrity, morphology and viability during 18 hours of time-lapse imaging; assay type: cell-based, mouse
Protocol: as §2, §3

[6] = tested on: migrating VSMCs of primary aortic explants; experiment: Filopodia length at the migrating front after scratch infliction; assay type: cell-based, mouse; conditions: for presence of filopodia: 5 μM
Protocol: as §2

[7] = tested on: axial pHi gradient in migrating VSMCs of primary aortic explants; experiment: Subcellular pHi by confocal microscopy (carboxy SNARF-1) in migrating VSMCs; assay type: cell-based, mouse
Protocol: as §1
Previous studies from non-vascular cell types propose that increased acid extrusion at the leading edge of migrating cells creates an axial pHi gradient, which can facilitate actin polymerization, filopodia formation, and cell migration. To investigate pH gradients within cells, we measured pHi -differences between the tip of filopodia and the general (perinuclear) cytosol two hours after scratch infliction. […] With the intention of investigating local pHi dynamics in the region of the filopodia, we incubated primary explants in absence of CO2/HCO3^− for two hours after wound infliction to allow for filopodia formation. We then investigated pHi after an additional 15 minutes with or without CO2/HCO3^− or in the presence of pharmacological inhibitors (FIG. 13E,F). […]

[8] = target: T2, NBCn1-mediated Na+,HCO3−-cotransport in MCF-7 human breast cancer cells (Homo sapiens, UniProt Q9Y6M7); conditions: earlier work; cited from earlier work
T2 construct: net acid extrusion from MCF-7 cells occurs through a combination of NBCn1-mediated Na^+,HCO3^−-cotransport and NHE1-mediated Na^+/H^+-exchange; endogenous in cells; host or cells: MCF-7 human breast cancer cells (Lauritzen et al., 2010)
T2 sequence (Q9Y6M7 1-1214): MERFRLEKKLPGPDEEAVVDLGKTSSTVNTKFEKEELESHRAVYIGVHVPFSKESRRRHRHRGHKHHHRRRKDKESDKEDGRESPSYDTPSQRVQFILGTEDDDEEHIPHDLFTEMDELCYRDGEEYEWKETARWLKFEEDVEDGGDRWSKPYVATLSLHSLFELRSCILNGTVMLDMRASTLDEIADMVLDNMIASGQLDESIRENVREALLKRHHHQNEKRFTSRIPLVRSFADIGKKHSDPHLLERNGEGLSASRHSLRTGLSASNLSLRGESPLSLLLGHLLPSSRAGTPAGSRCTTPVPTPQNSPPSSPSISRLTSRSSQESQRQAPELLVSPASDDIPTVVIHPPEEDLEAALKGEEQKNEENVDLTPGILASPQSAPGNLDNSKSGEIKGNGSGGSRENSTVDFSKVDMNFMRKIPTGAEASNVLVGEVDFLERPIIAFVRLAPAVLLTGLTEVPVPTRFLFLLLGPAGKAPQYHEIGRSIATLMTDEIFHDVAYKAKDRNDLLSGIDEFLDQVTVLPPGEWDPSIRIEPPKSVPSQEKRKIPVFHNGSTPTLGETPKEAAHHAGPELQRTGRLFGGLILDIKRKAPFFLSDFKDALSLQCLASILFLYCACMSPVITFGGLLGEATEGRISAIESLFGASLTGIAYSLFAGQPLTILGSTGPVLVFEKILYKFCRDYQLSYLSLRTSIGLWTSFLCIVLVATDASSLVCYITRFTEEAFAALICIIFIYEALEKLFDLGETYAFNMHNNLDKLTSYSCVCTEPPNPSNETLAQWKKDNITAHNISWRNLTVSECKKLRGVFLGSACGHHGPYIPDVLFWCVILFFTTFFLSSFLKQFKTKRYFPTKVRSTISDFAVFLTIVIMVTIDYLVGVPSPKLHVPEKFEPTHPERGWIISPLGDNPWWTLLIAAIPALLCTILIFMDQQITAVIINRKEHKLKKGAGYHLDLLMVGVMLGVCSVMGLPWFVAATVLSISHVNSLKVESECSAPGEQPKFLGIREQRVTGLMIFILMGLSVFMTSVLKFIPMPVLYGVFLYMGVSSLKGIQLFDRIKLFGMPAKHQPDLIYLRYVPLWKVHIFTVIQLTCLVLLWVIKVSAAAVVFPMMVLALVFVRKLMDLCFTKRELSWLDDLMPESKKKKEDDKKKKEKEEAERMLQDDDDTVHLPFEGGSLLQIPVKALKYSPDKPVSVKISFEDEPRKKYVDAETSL

[9] = tested on: Na+,HCO3−-cotransport in isolated arteries; conditions: previously shown; cited from earlier work
[10] = tested on: Na+,HCO3−-cotransport in breast cancer slices or freshly isolated breast cancer organoids; conditions: earlier work; cited from earlier work
[11] = earlier work; cited from earlier work

T1 sequence (P19634 whole entry): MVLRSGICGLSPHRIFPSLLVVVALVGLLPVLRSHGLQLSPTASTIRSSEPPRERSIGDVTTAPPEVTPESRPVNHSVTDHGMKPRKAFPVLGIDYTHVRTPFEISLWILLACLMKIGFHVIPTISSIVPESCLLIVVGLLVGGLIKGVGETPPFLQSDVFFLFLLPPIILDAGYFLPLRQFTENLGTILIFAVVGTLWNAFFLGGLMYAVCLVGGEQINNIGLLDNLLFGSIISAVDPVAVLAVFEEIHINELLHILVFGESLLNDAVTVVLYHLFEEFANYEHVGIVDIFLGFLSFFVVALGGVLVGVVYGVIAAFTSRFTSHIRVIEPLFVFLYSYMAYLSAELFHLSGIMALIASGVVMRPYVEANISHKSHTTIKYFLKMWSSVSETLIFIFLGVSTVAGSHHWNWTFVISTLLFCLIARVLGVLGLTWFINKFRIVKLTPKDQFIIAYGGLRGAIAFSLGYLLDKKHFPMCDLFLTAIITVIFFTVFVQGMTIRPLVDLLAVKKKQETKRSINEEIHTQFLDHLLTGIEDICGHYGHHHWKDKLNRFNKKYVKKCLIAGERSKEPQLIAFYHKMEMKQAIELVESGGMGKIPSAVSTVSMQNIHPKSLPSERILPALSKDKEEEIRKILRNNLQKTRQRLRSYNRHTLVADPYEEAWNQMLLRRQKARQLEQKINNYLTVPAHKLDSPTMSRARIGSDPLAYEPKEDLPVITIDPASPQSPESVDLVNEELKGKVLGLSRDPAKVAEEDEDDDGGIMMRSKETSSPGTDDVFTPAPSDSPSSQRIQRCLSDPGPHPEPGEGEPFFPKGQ

CCN(c1nc(N)c(C(=O)N=C(N)N)nc1Cl)C(C)C [5-(N-Ethyl-N-isopropyl)amiloride]
remaining net acid extrusion after inhibition of Na+,HCO3−-cotransport in MCF-7 cells [1]: inhibited

Cc1ccc(CN(Cc2ccc(-c3ccccc3S(=O)(=O)NC#N)cc2)C(=O)c2ccccc2Cl)cc1 [S0859]
Na+,HCO3−-cotransport activity ([2]; primary aortic explants from WT mice, CO2/HCO3- present, 5 and 30 μM): concentration-dependently attenuates
steady-state pHi ([2]; primary aortic explants, five minutes after addition of S0859): concentration-dependently attenuates
wound healing ([3]; 5 μM, PSS, presence of CO2/HCO3-): inhibited
relative number of mitoses [4]: no effect
cell integrity and morphology ([5]; 5 μM, 18 hours, PSS with CO2/HCO3-): well-maintained
cell morphology ([5]; 30 μM, 18 hours, PSS with CO2/HCO3-): severe morphological changes
cell viability ([5]; primary explants, CO2/HCO3−-containing PSS, FIG. 16): causes loss of cell viability
presence of filopodia ([6]; CO2/HCO3−-free conditions): unaffected
presence of filopodia ([6]; explants from WT mice, CO2/HCO3−-containing PSS): reduced
pHi of migrating VSMCs, in particular at the tip of filopodia ([7]; 5 μM, 15 minutes exposure, PSS): strongly acidified
Na+,HCO3−-cotransport in cultures of MCF7 breast cancer cells [8]: inhibits
cellular net acid extrusion in isolated arteries [9]: does not affect
effect in breast cancer slices or freshly isolated breast cancer organoids [10]: has no effect
protein binding [11]: unusually strong protein binding

C[C@@H](N)[C@H]1CC[C@H](C(=O)Nc2ccncc2)CC1 [Y-27632]
wound healing ([3]; 10 μM, primary aortic explants from NBCn1 KO and WT mice): stimulated

CC(=O)Nc1nnc(S(N)(=O)=O)s1 [acetazolamide]
initial rate of wound healing ([3]; 100 μM, aortic explants from NBCn1 KO mice, CO2/HCO3−-containing medium with serum): increased
abundance of filopodia ([6]; 100 μM, aortic explants from NBCn1 KO mice, presence of CO2/HCO3-): increased abundance
axial pHi gradients ([7]; 100 μM, explants from NBCn1 KO mice, presence of CO2/HCO3-): reestablishes

Source: US20180057588A1, “Antibodies Towards an Extracellular Region of NBCn1” (Aarhus Universitet, priority 2015, published 2018)
